# Experiments:
# [1] = system: Bacillus subtilis PCI 219; experiment: MIC, in vitro antibacterial activity (standard strains); assay type: cell-based; settings: Bacillus subtilis, PCI219; 10^6 cells/ml; Gram +; read-out: MIC
# [2] = system: Staphylococcus aureus 209 P; experiment: as above; assay type: cell-based; settings: Staphylococcus aureus, 209P; 10^6 cells/ml; Gram +; read-out: MIC
# S. aureus Smith = experiment: as above; assay type: cell-based, Staphylococcus aureus; settings: Staphylococcus aureus; 10^6 cells/ml; Gram +; read-out: MIC
# S. epidermidis IID 866 = experiment: as above; assay type: cell-based; settings: Staphylococcus epidermidis, IID866; 10^6 cells/ml; Gram +; read-out: MIC
# [3] = system: Streptococcus pyogenes (S-8); experiment: as above; assay type: cell-based; settings: Streptococcus pyogenes; 10^6 cells/ml; Gram +; read-out: MIC
# S. pneumoniae IID 552 = experiment: as above; assay type: cell-based; settings: Streptococcus pneumoniae, IID552; 10^6 cells/ml; Gram +; read-out: MIC
# E. faecalis IID 682 = experiment: as above; assay type: cell-based; settings: Enterococcus faecalis, IID682; 10^6 cells/ml; Gram +; read-out: MIC
# E. coli ATCC 10536 = experiment: as above; assay type: cell-based, Escherichia coli; settings: Escherichia coli, ATCC10536; 10^6 cells/ml; Gram -; read-out: MIC
# E. coli ML 4707 = experiment: as above; assay type: cell-based, Escherichia coli; settings: Escherichia coli, ML4707, 10^6 cells/ml; Gram -; Table 1; read-out: MIC
# [4] = system: Proteus vulgaris IFO 3167; experiment: as above; assay type: cell-based; settings: Proteus vulgaris, IFO3167; 10^6 cells/ml; Gram -; read-out: MIC
# K. pneumoniae 1-220S = experiment: as above; assay type: cell-based, Klebsiella pneumoniae; settings: Klebsiella pneumoniae, 1220S; 10^6 cells/ml; Gram -; read-out: MIC
# [5] = system: Citrobacter freundii IID 976; experiment: as above; assay type: cell-based; settings: Citrobacter freundii, IID976; 10^6 cells/ml; Gram -; read-out: MIC
# Shigella sonnei IID 969 = experiment: as above; assay type: cell-based; settings: Shigella sonnei, IID969; 10^6 cells/ml; Gram -; read-out: MIC
# Method: Minimal inhibitory concentrations (MICs) were determined in accordance with the method recommended by Japan Society of Chemotherapy.
# [6] = system: Salmonella enteritidis IID 604; experiment: as above; assay type: cell-based; settings: Salmonella enterica; 10^6 cells/ml; Gram -; read-out: MIC
# [7] = system: Pseudomonas aeruginosa V-1; experiment: as above; assay type: cell-based; settings: Pseudomonas aeruginosa, V1; 10^6 cells/ml; Gram -; read-out: MIC
# P. cepacia GIFU 518 = experiment: as above; assay type: cell-based; settings: Burkholderia cepacia, GIFU518
# [8] = system: Yersinia enterocolitica IID 981; experiment: as above; assay type: cell-based; settings: Yersinia enterocolitica, IID981; 10^6 cells/ml; Gram -; read-out: MIC
# [9] = system: Acinetobacter anitratus IID 876; experiment: as above; assay type: cell-based; settings: Acinetobacter calcoaceticus, IID876; 10^6 cells/ml; Gram -; read-out: MIC
# [10] = system: Alcaligenes faecalis 0114002; experiment: as above; assay type: cell-based; settings: Alcaligenes faecalis, 0114002; 10^6 cells/ml; Gram -; read-out: MIC
# [11] = system: Bacteroides fragilis GM 7000; experiment: as above; assay type: cell-based; settings: Bacteroides fragilis, GM7000; 10^6 cells/ml; Gram -; read-out: MIC
# B. fragilis 0558 = experiment: as above; assay type: cell-based, Bacteroides fragilis; settings: Bacteroides fragilis, 0558; 10^6 cells/ml; Gram -; read-out: MIC
# B. fragilis 25285 = experiment: as above; assay type: cell-based, Bacteroides fragilis; settings: Bacteroides fragilis, 25285; 10^6 cells/ml; Gram -; read-out: MIC
# B. distasonis 8503 = experiment: as above; assay type: cell-based; settings: Parabacteroides distasonis, 8503; 10^6 cells/ml; Gram -; read-out: MIC
# [12] = system: Fusobacterium mortiferum 4249; experiment: as above; assay type: cell-based; settings: Fusobacterium mortiferum, 4249; 10^6 cells/ml; Gram -; read-out: MIC
# F. necrophorum S-45 = experiment: as above; assay type: cell-based; settings: Fusobacterium necrophorum, S45; 10^6 cells/ml; Gram -; read-out: MIC
# F. varium KYA 8501 = experiment: as above; assay type: cell-based; settings: Fusobacterium varium, KYA8501; 10^6 cells/ml; Gram -; read-out: MIC
# E. limosum KYA 8486 = experiment: as above; assay type: cell-based; settings: Eubacterium limosum, KYA8486; 10^6 cells/ml; Gram +; read-out: MIC
# [13] = system: Propionibacterium acens 11828; experiment: as above; assay type: cell-based; settings: Propionibacterium, 11828; 10^6 cells/ml; Gram +; read-out: MIC
# [14] = system: Clostridium difficile I-E; experiment: as above; assay type: cell-based; settings: Clostridioides difficile; 10^6 cells/ml; Gram +
# C. perfringens KYA 13123 = experiment: microbe, parasite or virus in culture; assay type: cell-based; settings: Clostridium perfringens, KYA13123
# C. ramosum = experiment: MIC, in vitro antibacterial activity (standard strains); assay type: cell-based; settings: Thomasclavelia ramosa; 10^6 cells/ml; Gram +; read-out: MIC
# [15] = system: Peptostreptococcus anaerobius KYA 27337; experiment: as above; assay type: cell-based; settings: Peptostreptococcus anaerobius, KYA27337; 10^6 cells/ml; Gram +; read-out: MIC
# [16] = system: Veillonella parvula KYA 10790; experiment: as above; assay type: cell-based; settings: Veillonella parvula, KYA10790; 10^6 cells/ml; Gram -; read-out: MIC
Structure (SMILES),MIC [1],MIC [2],MIC (S. aureus Smith),MIC (S. epidermidis IID 866),MIC [3],MIC (S. pneumoniae IID 552),MIC (E. faecalis IID 682),MIC (E. coli ATCC 10536),MIC (E. coli ML 4707),MIC [4],MIC (K. pneumoniae 1-220S),MIC [5],MIC (Shigella sonnei IID 969),MIC [6],MIC [7],MIC (P. cepacia GIFU 518),MIC [8],MIC [9],MIC [10],MIC [11],other results
"CCNCC1CN(c2c(F)cc3c(=O)c(C(=O)O)cn(C4CC4)c3c2Cl)CC1C (stereo not drawn) [Example 14, 8-Chloro-1-cyclopropyl-7-(3-ethylaminomethyl-4-methyl-1-pyrrolidinyl)-6-fluoro-1,4-dihydro-4-oxo-3-quinolinecarboxylic acid]",0.0125 µg/mL,0.0125 µg/mL,0.0125 µg/mL,0.0125 µg/mL,0.05 µg/mL,0.05 µg/mL,0.05 µg/mL,0.025 µg/mL,0.05 µg/mL,0.05 µg/mL,0.2 µg/mL,0.1 µg/mL,0.025 µg/mL,0.2 µg/mL,0.78 µg/mL,0.78 µg/mL,0.2 µg/mL,0.1 µg/mL,0.78 µg/mL,0.1 µg/mL,MIC (B. fragilis 0558): ≤ 0.05 µg/mL; MIC (B. fragilis 25285): 0.05 µg/mL; MIC (B. distasonis 8503): 0.39 µg/mL; MIC [12]: 0.2 µg/mL; MIC (F. necrophorum S-45): 0.1 µg/mL; MIC (F. varium KYA 8501): 1.56 µg/mL; MIC (E. limosum KYA 8486): 0.78 µg/mL; MIC [13]: 1.56 µg/mL; MIC [14]: 0.1 µg/mL; MIC (C. perfringens KYA 13123): ≤ 0.05 µg/mL; MIC (C. ramosum): 0.2 µg/mL; MIC [15]: ≤ 0.05 µg/mL; MIC [16]: 0.39 µg/mL
"CCn1cc(C(=O)O)c(=O)c2cc(F)c(N3C[C@@H](N)[C@@H](C)C3)c(Cl)c21 (relative stereo) [Example 23, 7-(cis-3-Amino-4-methyl-1-pyrrolidinyl)-8-chloro-1-ethyl-6-fluoro-1,4-dihydro-4-oxo-3-quinolinecarboxylic acid]",0.05 µg/mL,0.1 µg/mL,0.2 µg/mL,0.2 µg/mL,0.78 µg/mL,0.78 µg/mL,0.78 µg/mL,0.05 µg/mL,0.05 µg/mL,0.05 µg/mL,0.1 µg/mL,0.05 µg/mL,0.05 µg/mL,0.1 µg/mL,0.39 µg/mL,0.78 µg/mL,0.05 µg/mL,0.39 µg/mL,1.56 µg/mL,0.78 µg/mL,MIC (B. fragilis 0558): 0.78 µg/mL; MIC (B. fragilis 25285): 0.78 µg/mL; MIC (B. distasonis 8503): 3.13 µg/mL; MIC [12]: 1.56 µg/mL; MIC (F. necrophorum S-45): 1.56 µg/mL; MIC (F. varium KYA 8501): 6.25 µg/mL; MIC (E. limosum KYA 8486): 6.25 µg/mL; MIC [13]: 12.5 µg/mL; MIC [14]: 6.25 µg/mL; MIC (C. perfringens KYA 13123): 0.78 µg/mL; MIC (C. ramosum): 6.25 µg/mL; MIC [15]: 1.56 µg/mL; MIC [16]: 0.78 µg/mL
